Laboratory results taken from patent publication US20260306527A1, “PRMT INHIBITOR COMPOUNDS AND THE USES THEREOF” (Purdue Research Foundation, priority 2023, published 2026).

Assays:
Format in all cases: biochemical
PRMT1 [1] = molecular target: T1, PRMT1 (Homo sapiens, UniProt Q99873); test: SAHH-coupled fluorescence assay, inhibition of PRMT1
T1 construct: made in house
Summary of the method: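 PRMT1 (0.1 μM) was run with 10 μM AdoMet, 5 μM SAHH and 10 μM ThioGlo4 in 2.5 mM HEPES pH 7.0, 25 mM NaCl, 25 μM EDTA, 50 μM TCEP and 0.01% Triton X-100. Fluorescence (ex 400/em 465 nm) was monitored for 15 min. Assays were done in duplicate.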

PRMT6 [2] = molecular target: T2, PRMT6 (Homo sapiens, UniProt Q96LA8); test: selectivity of YD1113/YD1290 on PRMT panel, PRMT6
Experimental: (§1) The selectivity of compounds YD1113 and YD1290 on PRMTs were performed by Reaction Biology Corp.
(§2) Next, the selectivity of YD1113 was investigated on a panel of PRMTs at 10 μM.
(§3) After validating the benzyl urea moiety as an unconventional homocysteine mimic of SAH for PRMTs, it was hypothesized that incorporating the benzyl urea moiety into the original pan PRMT inhibitor II757 would build a potent bisubstrate inhibitor. […] To enable a stable tri-substitution, the sulfur atom with a nitrogen atom was replaced. YD1290 was synthesized following the reported methods 9, 15 and tested in a radioactivity assay for PRMTs (FIG. 6b).

PRMT8 [3] = molecular target: T3, PRMT8 (Homo sapiens, UniProt Q9NR22); test: selectivity of YD1113/YD1290 on PRMT panel, PRMT8
Experimental: as §1, §2, §3

PRMT5 = PRMT5 (Homo sapiens, UniProt O14744); test: selectivity of YD1113 on PRMT panel, PRMT5; details: read-out: IC50 (nM) | PRMT5
Experimental: as §1, §2

PRMT7 = test: selectivity of YD1113 on PRMT panel, PRMT7
Experimental: as §1, §2

PRMT3 [4] = test: selectivity of YD1113/YD1290 on PRMT panel, PRMT3
Experimental: as §1, §2, §3

PRMT1 [5] = molecular target: T1, PRMT1; test: selectivity of YD1113/YD1290 on PRMT panel, PRMT1
Experimental: as §1, §2, §3

PRMT4 [6] = test: selectivity of YD1113/YD1290 on PRMT panel, PRMT4
Experimental: as §1, §2, §3

PRMT4 [7] = molecular target: T4, PRMT4 (Homo sapiens, UniProt Q86X55); test: radioactive assay (Reaction Biology Corp.), inhibition of PRMT4
T4 sequence (Q86X55 1-608): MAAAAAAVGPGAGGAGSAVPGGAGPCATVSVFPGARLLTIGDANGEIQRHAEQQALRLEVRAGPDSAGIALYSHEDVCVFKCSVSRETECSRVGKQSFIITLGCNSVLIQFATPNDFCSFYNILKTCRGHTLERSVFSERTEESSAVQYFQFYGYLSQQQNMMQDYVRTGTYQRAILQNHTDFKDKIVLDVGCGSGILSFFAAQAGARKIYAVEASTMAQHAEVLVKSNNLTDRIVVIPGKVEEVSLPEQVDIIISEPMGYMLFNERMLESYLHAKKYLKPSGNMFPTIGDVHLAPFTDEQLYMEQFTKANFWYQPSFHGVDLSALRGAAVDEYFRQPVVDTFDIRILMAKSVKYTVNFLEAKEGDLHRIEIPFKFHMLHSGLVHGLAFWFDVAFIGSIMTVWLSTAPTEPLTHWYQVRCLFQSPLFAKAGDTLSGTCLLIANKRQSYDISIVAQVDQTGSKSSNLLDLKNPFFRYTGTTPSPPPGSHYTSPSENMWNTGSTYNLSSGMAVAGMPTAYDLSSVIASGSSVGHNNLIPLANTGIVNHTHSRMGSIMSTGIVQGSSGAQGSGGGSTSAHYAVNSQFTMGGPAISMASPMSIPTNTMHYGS
Experimental: (§4) Next, the inhibition activity of the library was investigated for five PRMT members from type I PRMTs.
(§5) The PRMT 4, 6 and 8 methylation assays were performed by Reaction Biology corp.

PRMT3 [8] = molecular target: PRMT3 (Homo sapiens, UniProt O60678); test: SAHH-coupled fluorescence assay, inhibition of PRMT3; design: PRMT3 (residues 211-531) was cloned into the pET28a-MHL expression vector; tag of the pET28a-MHL vector (not described); made in house; host or cells: Escherichia coli BL21(DE3)
Summary of the method: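 Coupled SAHH/ThioGlo4 fluorescence read-out (ex 380 nm, em 505 nm) of PRMT3 (0.25 μM) methylation with 30 μM AdoMet and 5 μM SAHH. Buffer was 20 mM Tris pH 7.5 with 0.01% Triton X-100. Run in duplicate.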

PRMT6 [9] = molecular target: T2, PRMT6; test: radioactive assay (Reaction Biology Corp.), inhibition of PRMT6; details: for PRMT6 inhibition: 10 μM
Experimental: as §4, §5

PRMT8 [10] = molecular target: T3, PRMT8; test: radioactive assay (Reaction Biology Corp.), inhibition of PRMT8
Experimental: as §4, §5

PRMT3 [11] = test: SAHH-coupled fluorescence assay, inhibition of PRMT3
Experimental: A fluorescence-based SAHH-coupled assay was applied to study the inhibition activity of all synthesized compounds on PRMT 1 and 3.
(§6) The PRMT3 methylation assay was performed under the following conditions in a final well volume of 100 μL: 20 mM Tris (pH=7.5), 0.01% Triton X-100, 5 μM SAHH, 0.25 μM PRMT3, 30 μM AdoMet, and 15 μM ThioGlo4. […] Fluorescence was monitored on a BMG CLARIOstar microplate reader with excitation 380 nm and emission 505 nm. Data were processed by using GraphPad Prism software 8.0. All experiments were performed in duplicate.
as §4
as §6, with “8.0.” for “8.0. All experiments were performed in duplicate.”

PRMT4 [12] = test: radioactive assay (Reaction Biology Corp.), inhibition of PRMT4
Experimental: as §4, §5

T1 sequence (Q99873 whole entry, species assumed): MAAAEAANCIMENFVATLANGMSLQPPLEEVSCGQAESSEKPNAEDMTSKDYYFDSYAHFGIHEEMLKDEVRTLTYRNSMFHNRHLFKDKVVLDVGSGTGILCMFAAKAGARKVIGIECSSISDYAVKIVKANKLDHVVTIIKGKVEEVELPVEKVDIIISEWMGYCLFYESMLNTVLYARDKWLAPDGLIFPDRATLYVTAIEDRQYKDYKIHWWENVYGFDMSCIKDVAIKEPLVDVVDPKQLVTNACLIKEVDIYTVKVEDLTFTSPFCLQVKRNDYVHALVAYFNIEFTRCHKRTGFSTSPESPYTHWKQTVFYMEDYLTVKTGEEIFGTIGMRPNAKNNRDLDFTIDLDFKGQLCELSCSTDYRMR
Sequence of PRMT3 (Homo sapiens, UniProt O60678) (O60678 211-531): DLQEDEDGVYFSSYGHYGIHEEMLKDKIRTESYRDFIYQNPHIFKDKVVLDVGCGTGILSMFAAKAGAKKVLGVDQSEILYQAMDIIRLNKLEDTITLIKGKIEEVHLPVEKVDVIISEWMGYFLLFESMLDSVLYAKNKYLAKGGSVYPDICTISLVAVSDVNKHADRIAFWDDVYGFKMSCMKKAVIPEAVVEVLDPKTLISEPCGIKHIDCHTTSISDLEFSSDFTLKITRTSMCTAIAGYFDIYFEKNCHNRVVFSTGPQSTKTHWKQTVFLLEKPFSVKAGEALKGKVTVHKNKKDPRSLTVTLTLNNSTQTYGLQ
T2 sequence (Q96LA8 whole entry, species assumed): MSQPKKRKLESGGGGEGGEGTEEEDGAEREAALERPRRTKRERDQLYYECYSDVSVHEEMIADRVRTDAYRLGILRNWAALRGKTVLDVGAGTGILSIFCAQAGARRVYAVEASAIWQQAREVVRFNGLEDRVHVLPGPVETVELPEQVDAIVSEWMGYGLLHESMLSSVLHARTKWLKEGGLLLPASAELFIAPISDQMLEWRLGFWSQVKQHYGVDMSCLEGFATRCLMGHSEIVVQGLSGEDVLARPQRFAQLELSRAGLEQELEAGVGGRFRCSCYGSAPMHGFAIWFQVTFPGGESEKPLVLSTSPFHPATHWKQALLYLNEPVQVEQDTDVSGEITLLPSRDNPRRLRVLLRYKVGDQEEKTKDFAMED
Sequence of PRMT5 (O14744 whole entry, species assumed): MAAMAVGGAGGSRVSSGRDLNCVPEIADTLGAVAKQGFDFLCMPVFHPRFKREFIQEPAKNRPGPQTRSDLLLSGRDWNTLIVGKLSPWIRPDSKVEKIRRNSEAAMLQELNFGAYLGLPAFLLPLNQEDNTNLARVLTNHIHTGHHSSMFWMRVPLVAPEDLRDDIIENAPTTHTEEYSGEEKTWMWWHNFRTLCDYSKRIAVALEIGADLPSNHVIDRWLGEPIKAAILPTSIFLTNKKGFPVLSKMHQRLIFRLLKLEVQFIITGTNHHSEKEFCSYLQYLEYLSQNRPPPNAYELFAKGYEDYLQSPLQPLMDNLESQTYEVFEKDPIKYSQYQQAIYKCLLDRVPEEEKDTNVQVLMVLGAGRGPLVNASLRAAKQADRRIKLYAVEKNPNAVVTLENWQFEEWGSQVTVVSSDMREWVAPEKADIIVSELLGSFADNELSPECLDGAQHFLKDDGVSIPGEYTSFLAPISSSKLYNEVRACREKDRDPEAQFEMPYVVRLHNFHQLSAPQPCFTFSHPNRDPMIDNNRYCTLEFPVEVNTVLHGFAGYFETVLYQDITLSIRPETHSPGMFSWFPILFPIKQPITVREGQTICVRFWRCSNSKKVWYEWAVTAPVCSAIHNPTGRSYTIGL
Sequence of PRMT5 (Q9BQA1 whole entry partner, species assumed): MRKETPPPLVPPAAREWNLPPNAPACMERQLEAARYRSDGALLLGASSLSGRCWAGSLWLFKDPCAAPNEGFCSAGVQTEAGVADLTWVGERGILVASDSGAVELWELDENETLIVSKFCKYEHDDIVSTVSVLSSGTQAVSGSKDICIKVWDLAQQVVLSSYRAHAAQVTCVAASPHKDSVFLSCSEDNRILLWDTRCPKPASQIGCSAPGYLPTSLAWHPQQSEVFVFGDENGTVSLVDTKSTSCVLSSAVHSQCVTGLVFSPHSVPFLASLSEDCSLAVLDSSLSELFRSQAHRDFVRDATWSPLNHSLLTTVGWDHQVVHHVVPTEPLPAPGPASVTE
T3 sequence (Q9NR22 whole entry, species assumed): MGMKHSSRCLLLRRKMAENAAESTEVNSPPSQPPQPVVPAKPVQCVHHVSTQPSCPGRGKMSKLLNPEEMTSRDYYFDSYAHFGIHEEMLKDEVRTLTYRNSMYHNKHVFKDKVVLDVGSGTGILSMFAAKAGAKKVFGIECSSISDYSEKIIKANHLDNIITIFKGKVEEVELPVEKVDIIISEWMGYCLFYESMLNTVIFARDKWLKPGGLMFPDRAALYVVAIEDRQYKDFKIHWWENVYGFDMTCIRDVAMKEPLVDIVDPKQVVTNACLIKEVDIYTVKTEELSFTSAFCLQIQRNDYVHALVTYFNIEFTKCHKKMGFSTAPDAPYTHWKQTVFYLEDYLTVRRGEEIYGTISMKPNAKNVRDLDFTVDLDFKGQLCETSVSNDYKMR

SMILES	inhibition at 10 µM (PRMT1 [1])	inhibition at 10 µM (PRMT4 [7])	inhibition at 10 µM (PRMT3 [8])	inhibition at 10 µM (PRMT6 [9])	inhibition at 10 µM (PRMT8 [10])	IC50 (PRMT4 [12])	IC50 (PRMT3 [11]; read-out: IC50 [µM] | PRMT3)	other results
N=C(NCCCSC[C@H]1O[C@@H](n2cnc3c(NCC#Cc4ccc(O)cc4)ncnc32)C(O)[C@H]1O)Nc1cccc(Br)c1 (stereo in doubt) [YD1-250]								PRMT1 inhibition (PRMT1 [1]): PRMT1 inhibitors; IC50 (PRMT6 [2]): 44 nM; IC50 (PRMT8 [3]): 38 nM; IC50 (PRMT5): 136 nM; IC50 (PRMT7): 2640 nM; IC50 (PRMT3 [4]): 1640 nM; IC50 (PRMT1 [5]): 7.6 nM; IC50 (PRMT4 [6]): 203 nM
N=C(NCCCSC[C@H]1O[C@@H](n2cnc3c(NCc4cn(Cc5ccccc5)nn4)ncnc32)C(O)[C@H]1O)Nc1cccc(Br)c1 (stereo in doubt) [YD1-254]								PRMT1 inhibition (PRMT1 [1]): PRMT1 inhibitors; IC50 (PRMT6 [2]): 25 nM; IC50 (PRMT8 [3]): 40 nM; IC50 (PRMT5): 1790 nM; IC50 (PRMT7): > 30000 nM; IC50 (PRMT3 [4]): 3620 nM; IC50 (PRMT1 [5]): 14 nM; IC50 (PRMT4 [6]): 1680 nM
Nc1ncnc2c1ncn2[C@@H]1O[C@H](CSCCNC(=O)NCc2ccc(F)cc2)[C@@H](O)[C@H]1O [Compound 7d, 1-(2-((((2S,3S,4R,5R)-5-(6-amino-9H-purin-9-yl)-3,4-dihydroxytetrahydrofuran-2-yl)methyl)thio)ethyl)-3-(4-fluorobenzyl)urea]	6%	95%	62%	25%	8%	270 ± 60 nM	5.9 ± 1.4 µM	fold reduction of PRMT3 inhibition vs YD1113 (PRMT3 [8]): over 10 fold; PRMT6 inhibition (PRMT6 [9]): inactive to PRMT6
Nc1ncnc2c1ncn2[C@@H]1O[C@H](CSCCNC(=O)Nc2ccccc2)[C@@H](O)[C@H]1O [Compound 7f, 1-(2-((((2S,3S,4R,5R)-5-(6-amino-9H-purin-9-yl)-3,4-dihydroxytetrahydrofuran-2-yl)methyl)thio)ethyl)-3-phenylurea]	9%	84%	86%	28%	12%		1.9 ± 0.12 µM	fold reduction of PRMT3 inhibition vs YD1113 (PRMT3 [8]): 4 fold; PRMT6 inhibition (PRMT6 [9]): inactive to PRMT6
Nc1ncnc2c1ncn2[C@@H]1O[C@H](CSCCNC(=O)NCc2ccccc2Br)[C@@H](O)[C@H]1O [Compound 7h]	12%	96%	25%	-11%	-13%	21 ± 2.8 nM		
Nc1ncnc2c1ncn2[C@@H]1O[C@H](CSCCNC(=O)Nc2ccc(F)cc2)[C@@H](O)[C@H]1O [Compound 7j, 1-(2-((((2S,3S,4R,5R)-5-(6-amino-9H-purin-9-yl)-3,4-dihydroxytetrahydrofuran-2-yl)methyl)thio)ethyl)-3-(4-fluorophenyl)urea]	17%	88%	78%	17%	1%		2 ± 0.23 µM	fold reduction of PRMT3 inhibition vs YD1113 (PRMT3 [8]): 4 fold; PRMT6 inhibition (PRMT6 [9]): inactive to PRMT6
Nc1ncnc2c1ncn2[C@@H]1O[C@H](CSCCNC(=O)Nc2ccc(Cl)cc2)[C@@H](O)[C@H]1O [Compound 7k, 1-(2-((((2S,3S,4R,5R)-5-(6-amino-9H-purin-9-yl)-3,4-dihydroxytetrahydrofuran-2-yl)methyl)thio)ethyl)-3-(4-chlorophenyl)urea]	7%	67%	30%	2%	-1%		22 ± 2.9 µM	fold reduction of PRMT3 inhibition vs 1i (PRMT3 [8]; vs 1i): 10 fold
Nc1ncnc2c1ncn2[C@@H]1O[C@H](CSCCNC(=O)Nc2cccc3ccccc23)[C@@H](O)[C@H]1O [Compound 7l, 1-(2-((((2S,3S,4R,5R)-5-(6-amino-9H-purin-9-yl)-3,4-dihydroxytetrahydrofuran-2-yl)methyl)thio)ethyl)-3-(naphthalen-1-yl)urea]	13%	88%	1%	2%	5%	470 ± 120 nM	81 ± 17 µM	fold reduction of PRMT3 inhibition vs 1h (PRMT3 [8]; vs phenyl (1h)): over 40 fold
Nc1ncnc2c1ncn2[C@@H]1O[C@H](CSCCNCc2cccc(-c3ccoc3)c2)[C@@H](O)[C@H]1O [Compound 10d]	14%	100%	1%	46%	44%	1200 ± 180 nM		
Nc1ncnc2c1ncn2[C@@H]1O[C@H](CSCCNCc2cccc(-c3cncnc3)c2)[C@@H](O)[C@H]1O [Compound 10g]	5%	98%	13%	31%	36%	9300 ± 1100 nM		
Nc1ncnc2c1ncn2[C@@H]1O[C@H](CSCCCNCc2cccc(-c3cncnc3)c2)[C@@H](O)[C@H]1O [Compound 10s]	28%	97%	24%	65%	39%	49000 ± 5700 nM		
N=C(NCCCSC[C@H]1O[C@@H](n2cnc3c(NCC#Cc4ccccc4)ncnc32)[C@H](O)[C@@H]1O)Nc1cccc(Br)c1 [YD1-248]								PRMT1 inhibition (PRMT1 [1]): PRMT1 inhibitors; IC50 (PRMT6 [2]): 25 nM; IC50 (PRMT8 [3]): 24 nM; IC50 (PRMT5): 1380 nM; IC50 (PRMT7): 5570 nM; IC50 (PRMT3 [4]): 2370 nM; IC50 (PRMT1 [5]): 3.35 nM; IC50 (PRMT4 [6]): 2760 nM

Continued, in another order:

inhibition at 10 µM (PRMT1 [1])	inhibition at 10 µM (PRMT4 [7])	inhibition at 10 µM (PRMT3 [8])	inhibition at 10 µM (PRMT6 [9])	inhibition at 10 µM (PRMT8 [10])	IC50 (PRMT4 [12])	IC50 (PRMT3 [11]; read-out: IC50 [µM] | PRMT3)	SMILES	other results
102%	100%	5%	96%	95%			N=C(NCCCSC[C@H]1O[C@@H](n2cnc3c(N)ncnc32)[C@H](O)[C@@H]1O)Nc1cccc(-c2cncnc2)c1 [Compound 6o]	IC50 (PRMT1 [1]; read-out: IC50[μM] | PRMT1): 0.45 ± 0.11 µM; IC50 (PRMT3 [11]; read-out: IC50[μM] | PRMT3): 25 ± 5 µM
7%	76%	13%	67%	12%	3600 ± 420 nM	70 ± 11 µM	Nc1ncnc2c1ncn2[C@@H]1O[C@H](CSCCCNC(=O)NCc2ccccc2)[C@@H](O)[C@H]1O [Compound 7p, 1-(3-((((2S,3S,4R,5R)-5-(6-amino-9H-purin-9-yl)-3,4-dihydroxytetrahydrofuran-2-yl)methyl)thio)propyl)-3-benzylurea]	inhibition at 70 µM (PRMT3 [8]; 70 μM): 50%
